This is an account of results in patent US5144059A, “Catecholamine esters” (priority 1989, dated 1992).

The structures appear in SMILES notation. “And” between values parts separate entries of the source, which are not always exact repeats. Equal values may be shown once.

Series [1] can be described thus: Permeability across excised pig cornea (perfusion method, HPLC). The class given is in vitro ADME. The following applies: for Amount of epinephrine released by 2B223 in the receiving compartment: released by 2B223 (2450 nMoles in donor); for Amount of epinephrine released by 2B852 in the receiving compartment: released by 2B852 (2770 nMoles in donor); for Amount of unchanged product in the receiving compartment (permeability rate): 2.5 mM in donor, GBR pH 7.65, 34-35 °C; for Release of epinephrine inside the eye: conclusion from the excised cornea experiment. As to the method:
Perfusion method: pig corneas have been removed with about 2 mm of sclera and set on a perfusion cell.
The receiving compartment and that of the donor were respectively filled with 6 ml and 1 ml of GBR solution (Glutathione Bicarbonate Ringer's solution) preheated at 35° C.
During the analysis the cells were maintained at a temperature of 34°-35° C. with a thermostat (REACTI-THERM, Pierce). Besides, the solutions in the 2 compartments were maintained under a flow of 95% O2 --5% CO2 mixture.
The GBR solution in the donor compartment was then substituted with 1 ml of GBR solution saturated with O2 --CO2 containing, 2B223 or 2B852 (2.5 mM).
Aliquots of 600 μl were withdrawn from the receiving compartment every 40 minutes for a period of 4 hours and immediately replaced with an equal volume of GBR.
A solution of GBR with diclofenac (0.1%) maintained at the same conditions (temperature 34°-35° C. and gassed with (O2 --CO2) acted as control aliquots from the control were withdrawn at the same times.
The samples and the controls at various times were immediately analyzed by HPLC.
Solutions: Glutathione Bicarbonate Ringer's (GBR), pH 7.65. The GBR solution was prepared in two parts: part I was composed of sodium chloride 12.4 g/l, potassium chloride 0.716 g/l, sodium dihydrogen phosphate monohydrate 0.206 g/l and sodium bicarbonate 4.908 g/l while part II was composed of calcium chloride 0.230 g/l, magnesium chloride 0.318 g/l, glucose 1.8 g/l and oxidized glutathioine 0.184 g/l. Both parts were stored cold and utilized within two weeks.
Equal volumes of part I and II were mixed prior to use.

The conditions of series [2]: applied topically to the eye; stated as known; cited from earlier work.
Series [3] deals with Intraocular pressure in rabbit. The series can be described thus: Intraocular pressure in rabbit after topical application. The class given is in vivo. Particulars: 0.1% solution topical; for Intraocular pressure: individual animal, Hydrochloride; for Intraocular pressure, mean: N=6.
Series [4] deals with Ocular Hypertension in Man. The series is described as follows: Ocular pressure in patients with non-severe ocular hypertension after instillation. The format is in vivo. Particulars: one drop 0.1% solution; for Ocular pressure: individual patient, Hydrochloride; for Ocular pressure, mean: N=4. How it is done:
1 drop of a 0.1% solution of 2B223 or 2B852, respectively, was instilled into each eye of 8 patients (males) suffering from non-severe ocular hypertension. Ocular pressure was tested at time 0, and 30, 120, 180 minutes after the ocular instillation. At same times blood pressure and heart rate were also tested.

Regarding `CNC[C@H](O)c1ccc(O)c(O)c1` [EPINEPHRINE, epinephrine, reference compound], the “Amount of epinephrine released by 2B223 in the receiving compartment” value in series [1] (40 min) came to 15.8 nmol; in series [1] (80 min), 21.7 nmol; in series [1] (120 min), 23.4 nmol; in series [1] (160 min), 26.2 nmol. Besides, the “Amount of epinephrine released by 2B852 in the receiving compartment” value in series [1] (40 min) is 14.5 nmol; in series [1] (80 min), 23.7 nmol; in series [1] (120 min), 28.9 nmol; in series [1] (160 min), 32.0 nmol. The “Permeation of cornea barrier” value in series [2] is “does not permeate cornea barrier”.
Consider `CNCC(O)c1ccc(OC(=O)N(C)C)c(OC(=O)C(C)C)c1.Cl` (centres unmarked) [2B852, 3-O-Isobutyryl-4-O-(N,N-Dimethylcarbamoyl)adrenaline Hydrochloride], for which the Intraocular pressure in series [3] (1 hour) is 12 mm Hg and 13 mm Hg and 11 mm Hg; in series [3] (2 hours), 13 mm Hg and 14 mm Hg; in series [3] (4 hours), 14 mm Hg and 15 mm Hg; in series [3] (8 hours) it was 16 mm Hg and 15 mm Hg and 14 mm Hg; in series [3] (time 0 (baseline)), 15 mm Hg and 16 mm Hg. The “Intraocular pressure, mean” value came out at 11.8 mm Hg in series [3] (1 hour); 13.5 mm Hg in series [3] (2 hours); 14.3 mm Hg in series [3] (4 hours); 15.3 mm Hg in series [3] (8 hours); 15.7 mm Hg in series [3] (time 0 (baseline)). Moreover, the Ocular pressure is 27 mmHg and 26 mmHg in series [4] (left eye, 0 min (baseline)); 26 mmHg and 24 mmHg and 25 mmHg in series [4] (left eye, 30 min); 24 mmHg and 22 mmHg and 25 mmHg in series [4] (left eye, 120 min); 23 mmHg and 25 mmHg in series [4] (left eye, 180 min); 26 mmHg and 25 mmHg and 24 mmHg and 28 mmHg in series [4] (right eye, 0 min (baseline)); 25 mmHg and 24 mmHg and 23 mmHg and 26 mmHg in series [4] (right eye, 30 min). The Ocular pressure in series [4] (right eye, 120 min) is 23 mmHg and 22 mmHg and 24 mmHg; in series [4] (right eye, 180 min), 25 mmHg and 22 mmHg and 23 mmHg and 24 mmHg. In addition, the “Ocular pressure, mean” value in series [4] (left eye, 0 min (baseline)) is 26.5 mmHg; in series [4] (left eye, 30 min), 25.3 mmHg; in series [4] (left eye, 120 min), 23.8 mmHg; in series [4] (left eye, 180 min), 23.8 mmHg; in series [4] (right eye, 0 min (baseline)) it was 25.8 mmHg; in series [4] (right eye, 30 min) it was 24.0 mmHg. Also, the “Ocular pressure, mean” value in series [4] (right eye, 120 min) was determined as 23.0 mmHg; in series [4] (right eye, 180 min) it was 23.5 mmHg. Further, the “Amount of unchanged product in the receiving compartment (permeability rate)” value in series [1] (40 min), in series [1] (80 min), in series [1] (120 min) and in series [1] (160 min) was 0.0 nmol throughout. In series [1], the “Release of epinephrine inside the eye” value is listed as “epinephrine is released inside the eye”.
Regarding `CNCC(O)c1ccc(OC(=O)N(C)C)c(OC(=O)c2ccc(C)cc2)c1.Cl` (centres unmarked) [2B223, 3-O-(4-Methylbenzoyl)-4-O-(N,N-Dimethylcarbamoyl)adrenaline Hydrochloride], the Intraocular pressure in series [3] (1 hour) was 12 mm Hg and 13 mm Hg and 11 mm Hg; in series [3] (2 hours) it was 13 mm Hg and 14 mm Hg; in series [3] (4 hours), 14 mm Hg and 15 mm Hg and 13 mm Hg; in series [3] (8 hours), 15 mm Hg and 16 mm Hg and 14 mm Hg; in series [3] (time 0 (baseline)), 16 mm Hg and 15 mm Hg and 17 mm Hg. In addition, the “Intraocular pressure, mean” value in series [3] (1 hour) was 12.2 mm Hg; in series [3] (2 hours), 13.3 mm Hg; in series [3] (4 hours) it was 14.2 mm Hg; in series [3] (8 hours), 15.2 mm Hg; in series [3] (time 0 (baseline)) it was 16.0 mm Hg. Further, the Ocular pressure was 26 mmHg and 25 mmHg in series [4] (left eye, 0 min (baseline)); 25 mmHg and 23 mmHg in series [4] (left eye, 30 min); 20 mmHg and 22 mmHg in series [4] (left eye, 120 min); 22 mmHg and 24 mmHg and 25 mmHg in series [4] (left eye, 180 min); 27 mmHg and 24 mmHg and 23 mmHg in series [4] (right eye, 0 min (baseline)); 24 mmHg and 23 mmHg and 25 mmHg in series [4] (right eye, 30 min). Besides, the Ocular pressure in series [4] (right eye, 120 min) was 22 mmHg and 21 mmHg and 23 mmHg; in series [4] (right eye, 180 min), 23 mmHg and 22 mmHg and 24 mmHg. Further, the “Ocular pressure, mean” value in series [4] (left eye, 0 min (baseline)) was determined as 25.8 mmHg; in series [4] (left eye, 30 min), 24.5 mmHg; in series [4] (left eye, 120 min), 21.5 mmHg; in series [4] (left eye, 180 min), 23.8 mmHg; in series [4] (right eye, 0 min (baseline)), 25.3 mmHg; in series [4] (right eye, 30 min) it was 24.0 mmHg. In addition, the “Ocular pressure, mean” value in series [4] (right eye, 120 min) turned out to be 22.3 mmHg; in series [4] (right eye, 180 min) it was 23.3 mmHg. The “Amount of unchanged product in the receiving compartment (permeability rate)” value in series [1] (40 min) is 0.0 nmol; in series [1] (80 min), 1.3 nmol; in series [1] (120 min), 4.1 nmol; in series [1] (160 min), 23.5 nmol. For the same compound, in series [1], the “Release of epinephrine inside the eye” value is “epinephrine is released inside the eye”.
